# How the values were obtained:
# [1] = test system: MRSA (ATCC BAA-44 and ATCC BAA-1717); assay: microbe, parasite or virus in culture; assay type: cell-based, Staphylococcus aureus
# Description: (§1) The MICs were determined by the broth microdilution method by following Clinical and Laboratory Standards Institute (CLSI) guidelines
# (§2) Spectroscopic characterization and X-ray structural determination unequivocally confirmed the identities of all the five new compositions of matter, that is compounds denoted as 6a through 6e.
# MRSA (ATCC BAA-44) [2] = assay: Sequential passaging drug resistance development study in MRSA; assay type: cell-based, Staphylococcus aureus; conditions: for MIC: Staphylococcus aureus, read-out: initial MIC
# Excerpt: FIG. 4 is a chart showing the drug resistance development of 6c in comparison with vancomycin and ofloxacin in MRSA (ATCC BAA-44);
# (§3) Typical clinical antibiotics can readily produce genetic mutants when used to treat the same bacterial over and over again, which is the major cause of antibiotic drug resistance in many pathogenic bacteria these days and of emergence of superbugs. To test if 6c can develop drug resistance in either MSSA (ATCC 29213) or MRSA (ATCC BAA-44), we performed sequential passaging studies with 6c. Briefly, the MIC values for S. aureus strains to be tested were determined first. Then, cells grown in the initial MIC dose of the compound or antibiotics from the previous passage were once again harvested after 24-h incubation period and assayed for a new MIC. The process was repeated for 56 passages against MRSA (ATCC BAA-44).
# MRSA (ATCC BAA-44) [3] = assay: Local wound infection model, topical treatment; assay type: in vivo, mice (C57BL/6); conditions: single topical dose 80 μg per wound at day 1 post-infection, CFU at day 2
# Description: FIG. 7 is a chart showing the effect of the treatment of 6c or vancomycin (via topical treatment, single dose at 80 μg per wound) on the bacterial burden in wounds of mice (C57BL/6 mice, male, 8-12 weeks old) infected by MRSA at day 2 post-wounding (mean±s·d, n=3 mice per group). The CFU counts from homogenized tissue collected from each mouse was run in duplicates. *: p<0.05 vs control;
# (§4) To validate the in vivo antibacterial efficacy, we conducted the studies of treating the infections of local wound infection as well as non-lethal systemic infection induced by MRSA. For local infection, a full-thickness, circular wound was generated on the dorsal surface of each mouse (C57BL/6) using a 6-mm sterile biopsy punch after the mouse was anesthetized, followed by inoculating with 1×10^6 CFU MRSA (ATCC BAA-44) in the wounded skin at day 0 and then a defined amount of 6c or vancomycin (80 μg in 40 μL sterile saline per wound) was topically applied once to the wounds of mice at day 1 post-infection. The CFU number of viable bacteria in the wound was quantified at day 2 post-infection. […] The CFU number of viable bacteria was counted at day 2 post-infection from major organs including lung, kidney, spleen, liver, and peritoneal tissues. […]
# [4] = test system: vancomycin-intermediate and daptomycin non-susceptible strain of MRSA (ATCC 700699); assay: MIC by broth microdilution (CLSI) against vancomycin-intermediate, daptomycin non-susceptible MRSA; assay type: cell-based; conditions: Staphylococcus aureus, ATCC 700699 / MRSA / VISA
# Description: as §1, §2
# [5] = test system: MSSA (ATCC 29213 and ATCC 6538); assay: MIC by broth microdilution (CLSI) against MSSA; assay type: cell-based, Staphylococcus aureus; conditions: two strains of MSSA
# Description: as §1, §2
# MSSA (ATCC 29213) = assay: Sequential passaging drug resistance development study in MSSA; assay type: cell-based, Staphylococcus aureus; conditions: MSSA ATCC 29213, sequential passaging, vs vancomycin and ciprofloxacin
# Excerpt: FIG. 5 is a chart showing the drug resistance development of 6c in comparison with vancomycin and ciprofloxacin in MSSA (ATCC SA 29213);
# as §3
# MRSA^oflR = assay: MIC against ofloxacin-resistant mutant MRSA from day 56 passage (cross-resistance); assay type: cell-based; conditions: Staphylococcus aureus
# Description: as §3
# MRSA^vanR = assay: MIC against vancomycin-resistant mutant MRSA from day 56 passage (cross-resistance); assay type: cell-based; conditions: Staphylococcus aureus
# Description: as §3
# [6] = test system: biofilm formed by MRSA (ATCC BAA-44); assay: Biofilm inhibition assay; assay type: cell-based, Staphylococcus aureus; conditions: 24 h
# Description: FIG. 6 is a chart showing the effect of 6c on the inhibition of biofilm formed by MRSA (ATCC BAA-44). Percentage of viable bacteria in the biofilm formed by MRSA in response to the treatment of Lawsone-derivatives (6a, 6b, 6c, 6d, and 6e) at varying concentrations (0-30 μM) (mean±s·d, n=3 independent experiments);
# By observing the antibacterial efficacy of 6c against planktonic phase of MRSA, we next examined whether 6c could be effective against biofilm phase of MRSA. For this, the biofilm inhibition assay was performed using the established procedure. […] For the quantification of biofilm mass, the solutions in the plate with biofilm were replaced with a 100 μL solution containing 0.5% of crystal violet and incubated for 30 min at room temperature in the dark. […] The absorbance of the biofilm was measured at 595 nm using a microplate reader and the results were expressed as percentage changes with respect to the control (without compounds). For the quantification of the number of viable bacteria in the biofilm, the biofilms were gently destroyed and plated on TSA after serial dilutions of each suspension. The number of viable bacteria in the sample was obtained using agar plate counting method as described above and results were expressed as percentage changes with respect to the control.
# MRSA (ATCC BAA-44) [7] = assay: Checkerboard assay of 6c with oxacillin; assay type: cell-based, Staphylococcus aureus; conditions: 6c combined with oxacillin
# Description: MIC of oxacillin in the presence of 0.6 μg/mL of 6c. ^bMIC of 6c in the presence of 4 μg/mL of oxacillin. The MICs were determined by the broth microdilution method by following Clinical and Laboratory Standards Institute (CLSI) guidelines.
# The checkerboard assay was performed in a 96-well plate using the established method. Specifically, the antibiotic oxacillin was 2-fold serially diluted along the row-axis and 6c was 2-fold serially diluted along the column-axis to create a matrix in which each well consists of a combination of both at different concentrations. Each well was inoculated with MRSA (ATCC BAA-44) to yield approximately 5×10^5 CFU/mL in a 100-μL final volume, incubated for 20 h at 37° C. and examined for visibility to determine the MIC. Dividing the MIC of 6c in the presence of antibiotic by the MIC of 6c alone was used to calculate the fractional inhibitory concentration (FIC) of 6c. Similarly, dividing the MIC of antibiotic in the presence of 6c by the MIC of the antibiotic alone was used to calculate the fractional inhibitory concentration (FIC) of the antibiotic. The FIC index was calculated by the summation of both FIC values. The FIC index was interpreted as synergistic, additive, or antagonistic for values of x≤0.5, 0.5<x<4, or ≥4, respectively.
# MRSA = assay: Non-lethal systemic infection model, i.p. treatment; assay type: in vivo, mice (C57BL/6); conditions: single dose 15 mg/kg i.p. at day 1 post-infection, CFU at day 2; p<0.05
# Excerpt: FIG. 8 is a chart showing the effect of the treatment of 6c (via i.p injection, […]) on the bacterial burden in lung (b), spleen (c), kidney (d), liver (e), and peritoneal (f) tissues of mice (C57BL/6 mice, male, 8-12 weeks old) infected by MRSA (mean±s·d, n=8 mice per group). The CFU counts from homogenized tissue collected from each mouse was run in duplicates. *: p<0.05, **: p<0.01, and ***: p<0.001.
# as §4
# [8] = at 56 passages (end of measurements)
smiles,measurement,setting,value
CN[C@H](CC(C)C)C(=O)N[C@H]1C(=O)N[C@@H](CC(N)=O)C(=O)N[C@H]2C(=O)N[C@H]3C(=O)N[C@H](C(=O)N[C@H](C(=O)O)c4cc(O)cc(O)c4-c4cc3ccc4O)[C@H](O)c3ccc(c(Cl)c3)Oc3cc2cc(c3O[C@@H]2O[C@H](CO)[C@@H](O)[C@H](O)[C@H]2O[C@H]2C[C@](C)(N)[C@H](O)[C@H](C)O2)Oc2ccc(cc2Cl)[C@H]1O [vancomycin],MIC,[1]; Staphylococcus aureus,~1 µg/mL
same,MIC,MRSA (ATCC BAA-44) [2],1 µg/mL
same,increase of MIC,MRSA (ATCC BAA-44) [2]; [8],128 fold
same,increase of MIC,MRSA (ATCC BAA-44) [2]; by 51 passages,4 fold
same,reduction of MRSA numbers (CFU) in the wound vs control,MRSA (ATCC BAA-44) [3],~50%
CCCCCCCCCC(=O)N[C@@H](Cc1c[nH]c2ccccc12)C(=O)N[C@H](CC(N)=O)C(=O)N[C@@H](CC(=O)O)C(=O)N[C@@H]1C(=O)NCC(=O)N[C@@H](CCCN)C(=O)N[C@@H](CC(=O)O)C(=O)N[C@H](C)C(=O)N[C@@H](CC(=O)O)C(=O)NCC(=O)N[C@H](CO)C(=O)N[C@@H]([C@H](C)CC(=O)O)C(=O)N[C@@H](CC(=O)c2ccccc2N)C(=O)O[C@@H]1C [daptomycin],MIC,"[1]; MRSA ATCC BAA-44 and ATCC BAA-1717, broth microdilution",~1 µg/mL
CC1COc2c(N3CCN(C)CC3)c(F)cc3c(=O)c(C(=O)O)cn1c23 (stereo not shown) [ofloxacin],MIC,MRSA (ATCC BAA-44) [2],8 µg/mL
same,increase of MIC,MRSA (ATCC BAA-44) [2]; after 5 passages,4 fold
same,increase of MIC,MRSA (ATCC BAA-44) [2]; at 35 passages,32 fold
same,increase of MIC,MRSA (ATCC BAA-44) [2]; [8],64 fold
"CCCCc1ccc(CC2=C(O)C(=O)c3ccccc3C2=O)cc1 [6c, 2-[(4-butylphenyl)methyl]-3-hydroxy-[1,4]naphthoquinone]",MIC,[1]; Staphylococcus aureus,1.25 to 2.5 µg/mL
same,MIC,[4],1.25 to 2.5 µg/mL
same,antimicrobial activity (MIC) compared with ofloxacin and ciprofloxacin,[5],comparable
same,MIC,MRSA (ATCC BAA-44) [2],1.25 µg/mL
same,increase of MIC,MRSA (ATCC BAA-44) [2]; [8],4 fold
same,change of MIC,MRSA (ATCC BAA-44) [2]; up to 33 passages,largely unchanged
same,drug resistance profile,MSSA (ATCC 29213),improved drug resistance profile
same,MIC,MRSA^oflR,1.25 µg/mL
same,MIC,MRSA^vanR,5 µg/mL
same,suppression of biofilm formation,[6]; dose of 1×MIC (5 μM or 1.5 μg/mL),40%
same,suppression of biofilm formation,[6]; dose of 3×MIC (15 μM or 4.5 μg/mL),90%
same,FIC index interpretation,MRSA (ATCC BAA-44) [7],synergistic (x≤0.5)
same,FIC,"MRSA (ATCC BAA-44) [7]; MRSA ATCC BAA-44, 20 h",0.31
same,reduction of MRSA numbers (CFU) in the wound vs control,MRSA (ATCC BAA-44) [3],60%
same,"bacterial burdens in kidney, liver, and peritoneal tissues vs vehicle control",MRSA,significantly reduced
